Consider 12 molecules from patent US20030207812A1, “Cd45 inhibitors” (priority 2002, published 2003).

For data set [1], the target named is T1, CD45 (Homo sapiens, UniProt P08575).
T1 construct: incubating the cytosolic portion of CD45 with the compounds and p-nitrophenyl phosphate (pNPP); purchased BIOMOL (Plymouth Meeting, Pa.)
T1 sequence (P08575 599-1306 limits assumed): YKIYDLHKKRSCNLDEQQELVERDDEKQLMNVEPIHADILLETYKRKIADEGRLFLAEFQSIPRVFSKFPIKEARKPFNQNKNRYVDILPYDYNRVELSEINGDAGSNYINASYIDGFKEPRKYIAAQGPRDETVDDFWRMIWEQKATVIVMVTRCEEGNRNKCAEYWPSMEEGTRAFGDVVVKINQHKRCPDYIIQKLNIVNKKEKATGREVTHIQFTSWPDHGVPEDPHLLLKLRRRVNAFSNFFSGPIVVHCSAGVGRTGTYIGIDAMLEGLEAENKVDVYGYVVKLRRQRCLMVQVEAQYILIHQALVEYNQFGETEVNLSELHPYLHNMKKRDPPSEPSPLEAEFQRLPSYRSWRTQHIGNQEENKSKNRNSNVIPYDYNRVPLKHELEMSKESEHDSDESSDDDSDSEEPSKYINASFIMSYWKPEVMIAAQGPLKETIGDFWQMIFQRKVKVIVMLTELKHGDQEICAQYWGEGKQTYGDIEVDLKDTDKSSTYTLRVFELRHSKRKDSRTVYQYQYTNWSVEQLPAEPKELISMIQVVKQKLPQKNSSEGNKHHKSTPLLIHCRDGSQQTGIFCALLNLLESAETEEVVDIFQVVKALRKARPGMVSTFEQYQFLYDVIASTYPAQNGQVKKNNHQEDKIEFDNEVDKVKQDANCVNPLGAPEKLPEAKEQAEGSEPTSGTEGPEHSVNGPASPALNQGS
In words: Phosphatase assay using pNPP as substrate. In kind it is biochemical. As to conditions: CD45 phosphatase, pNPP substrate, pH 7.0; read-out: pNPP IC50. Here is the method:
Phosphatase assay using pNPP as substrate:
CD45 enzyme was obtained from BIOMOL (Plymouth Meeting, Pa.). Phosphatase activity was assayed in a buffer containing final concentrations of 25 mM imidazole at pH 7.0, 50 mM NaCl, 2.5 mM ethylenediaminetetraacetic acid (“EDTA”), 5 mM dithiothreitol (“DTT”) and 10 μg/mL bovine serum albumin (“BSA”) using pNPP as a substrate.

In data set [2] the target is T1, CD45. Briefly: Phosphatase assay using lck 10-mer as substrate. In kind it is biochemical. As to conditions: CD45 phosphatase, lck carboxy-terminal peptide TEGQpYQPQP substrate, pH 7.2; read-out: Ick IC50. As to the method:
Phosphatase assay using lck 10-mer as substrate:
Phosphatase activity was assayed in 96 well plates in a buffer containing final concentrations of 25 mM HEPES at pH 7.2, 5 mM DTT and 10 μg/mL BSA using the lck carboxy-terminal peptide TEGQpYQPQP as the substrate (Cho, H., Krishnaraj, R., Itoh, M., Kitas, E., Bannwarth, W., Saito, H., Walsh, C. T. 1993. Substrate specificities of catalytic fragments of protein tyrosine phosphatases (HPTPb, LAR, and CD45) toward the phosphotyrosylpeptide substrates and thiophosphotyrosylated peptides as inhibitors. Protein Science 2:977-984). Compounds were tested in a range from 30 to 0.01 μM in a final concentration of 5% DMSO. Enzyme was incubated with substrate with or without compound, at room temperature for 1.5 h. At the end of the incubation period, BIOMOL “Green Reagent” (BIOMOL, Plymouth Meeting, Pa.) was added to each well, the plates incubated at room temperature for 30 min and absorbance read at 620 nm.

Data set [3] deals with T cells (PBMC). In words: cells. Conditions: human PBMC, OKT3 30 ng/mL, [3H]thymidine; read-out: T cell prolif. IC50. In kind it is cell-based, human. As to the method: Cell isolation and T cell proliferation assay:
Whole blood was obtained from healthy human blood donors. Peripheral blood mononuclear cells (“PBMC”) were isolated using Lymphoprep density-gradient centrifugation (Nycomed Amersham, Oslo, Norway), washed, counted and resuspended at 2×10^6 cells/mL in RPMI 1640 medium containing glutamine, 0.1 mg/mL gentamycin and 10% heat inactivated human serum. PBMC were transferred to 96-well plates (2×10^5 cells/well) containing compound or vehicle control, with the final concentration of DMSO not to exceed 0.3%, and incubated for 1 hour before addition of the activating anti-CD3 antibody, OKT3 (30ng/mL). After 24 hours in culture, the cells were pulsed with [^3H]thymidine (1 μCi/well) overnight and harvested the next day onto 96-well Packard GF/C filter plates using a Packard Cell Harvester (Packard Instruments, Meriden, Conn.). The filter plate was dried, the bottom of the plate sealed, 25 μL of Microscint 20 scintillation fluid added to each well, the top of the plate sealed with TopSeal-A, and the plate counted on a Packard TopCount. The data from the TopCount is transferred into Excel 5 (Microsoft, Redmond, Wash.) and formatted for EC50 determination using Prism software (GraphPad Software, San Diego, Calif.).

Data set [4] is described as follows: Cytotoxicity assay (Calcein-AM uptake). Conditions: human, PHA-expanded T-cell lymphoblasts from PBMC.
Procedure: Calcein-AM (Molecular Probes. Eugene, Oreg.) uptake, as a quantitative measure of cell viability, was used to evaluate the toxic effect of compounds on T cells.
The T-cell lymphoblasts were purified by separation over Lymphoprep, plated at 2×10^5/well in a round bottom 96-well plate containing RPMI with compound and incubated overnight at 37° C. in an incubator containing 5% CO2. The dilution scheme and culture media were the same as those used in the T-cell proliferation assay. After the incubation period, cells were washed with Dulbecco's phosphate-buffered saline (D-PBS) and incubated with 1 μM Calcein-AM for 30-45 mim in D-PBS as described in the technical sheet provided with The LIVE/DEAD Viability/Cytotoxicity Kit from Molecular Probes.

Broadly, the IC50 is the concentration that inhibits the measured activity by half. One may read the CC50 as the concentration at which the toxic effect on the cells reaches its halfway point. Turning to `O=C(COCc1ccccc1)Nc1ccc2c(c1)C(=O)C(=O)c1ccccc1-2` [Example 2, 2-Benzyloxy-N-(9,10-dioxo-9,10-dihydro-phenanthren-2-yl)-acetamide], the results for the IC50 in data set [1], in data set [2] and in data set [3] were 0.5 µM, 11 µM and 1 µM, respectively. In addition, the CC50 in data set [4] is 14 µM.
For `CCCC(=O)Nc1ccc2c(c1)C(=O)C(=O)c1ccccc1-2` [Example 3, N-(9,10-Dioxo-9,10-dihydro-phenanthren-2-yl)-butyramide], in that order: 0.7 µM, 17 µM, 1.1 µM and 8.2 µM.
For `O=C1C(=O)c2cc(NC(=O)c3ccccc3[N+](=O)[O-])ccc2-c2ccccc21` [Example 5, N-(9,10-Dioxo-9,10-dihydro-phenanthren-2-yl)-2-nitro-benzamide] the same measures were 0.3 µM, 12 µM, 1 µM and 8.2 µM.
As for `O=C1C(=O)c2cc(NC(=O)c3c(Cl)cc(Cl)cc3Cl)ccc2-c2ccccc21` [Example 6, 2,4,6-Trichloro-N-(9,10-dioxo-9,10-dihydro-phenanthren-2-yl)-benzamide], the half-inhibitory concentration (IC50) in data set [1] was 0.5 µM; in data set [2] it was 16 µM; in data set [3] it was 1.5 µM. Also, in data set [4], the CC50 is 12 µM.
For `O=C1C(=O)c2cc(NC(=O)C(Cl)(Cl)Cl)ccc2-c2ccccc21` [Example 7, 2,2,2-Trichloro-N-(9,10-dioxo-9,10-dihydro-phenanthren-2-yl)-acetamide], in that order: 0.5 µM, 13 µM, 0.5 µM and 9 µM.
On to `O=C1C(=O)c2cc(NC(=O)c3ccccc3C(F)(F)F)ccc2-c2ccccc21` [Example 8, N-(9,10-Dioxo-9,10-dihydro-phenanthren-2-yl)-2-trifluoromethyl-benzamide], for which the results for the half-maximal inhibitory concentration (IC50) in data set [1], in data set [2] and in data set [3] were 0.4 µM, 15 µM and 1.4 µM, respectively. Also, the CC50 in data set [4] was 12 µM.
As for `CC(C)(C)C(=O)Nc1ccc2c(c1)-c1ccccc1C(=O)C2=O` [Example 10, N-(9,10-Dioxo-9,10-dihydro-phenenathren-3-yl)-2,2-dimethyl-propionamide], the 50% inhibitory concentration (IC50) in data set [1] came to 1.2 µM; in data set [2], 4.9 µM; in data set [3], 0.7 µM. Further, the CC50 in data set [4] was 10 µM.
For `O=C(Nc1ccc2c(c1)-c1ccccc1C(=O)C2=O)c1ccccc1F` [Example 12, N-(9,10-Dioxo-9,10-dihydro-phenanthren-3-yl)-2-fluoro-benzamide], in that order: 1.3 µM, 6 µM, 3 µM and 15 µM.
Take `Cc1ccc(S(=O)(=O)Nc2ccc3c(c2)C(=O)C(=O)c2ccccc2-3)cc1` [Example 15, N-(9,10-Dioxo-9,10-dihydro-phenanthren-2-yl)-4-methyl-benzenesulfonamide]: the results for the half-inhibitory concentration (IC50) in data set [1], in data set [2] and in data set [3] were 1 µM, 15 µM and 6.4 µM, respectively. The CC50 in data set [4] was above 30 µM.
`O=C1C(=O)c2cc(-c3ccsc3)ccc2-c2ccccc21` [Example 17, 2-Thiophen-3-yl-phenanthrene-9,10-dione]: the figures for the IC50 in data set [1], in data set [2] and in data set [3] were 0.8 µM, above 30 µM and 1.8 µM, respectively. Also, the CC50 in data set [4] was 7.3 µM.
For `O=C1C(=O)c2cc(-c3ccc4c(c3)OCO4)ccc2-c2ccccc21` [Example 21, 2-Benzo[1,3]dioxol-5-yl-phenanthrene-9,10-dione], in that order: 0.99 µM, above 30 µM, 1.8 µM and 4.9 µM.
For `CCOc1ccccc1-c1ccc2c(c1)C(=O)C(=O)c1ccccc1-2` [Example 22, 2-(2-Ethoxy-phenyl)-phenanthrene-9,10-dione], in that order: 3.6 µM, 9.7 µM, 0.7 µM and above 30 µM.
